Laboratory results published in EP4696688A1, “BENZO-FUSED RING COMPOUND INHIBITOR, AND PREPARATION METHOD THEREFOR AND USE THEREOF” (Shanghai Hansoh Biomedical Co., Ltd., priority 2023, dated 2024).

Experiments:
[1] = target: T1, human CYP11B1 (Homo sapiens, UniProt P15538); assay: G-402 cell enzyme experiment, CYP11B1 (cortisol product, HTRF), selectivity versus CYP11B2; format: cell-based; settings: human selective factor: ratio of CYP11B1 EC50 to CYP11B2 EC50; G-402 cells
T1 construct: The main elements of an expression plasmid include ORF of human CYP11B1 or human CYP11B2; expressed in transfected cells
T1 sequence (P15538 25-503): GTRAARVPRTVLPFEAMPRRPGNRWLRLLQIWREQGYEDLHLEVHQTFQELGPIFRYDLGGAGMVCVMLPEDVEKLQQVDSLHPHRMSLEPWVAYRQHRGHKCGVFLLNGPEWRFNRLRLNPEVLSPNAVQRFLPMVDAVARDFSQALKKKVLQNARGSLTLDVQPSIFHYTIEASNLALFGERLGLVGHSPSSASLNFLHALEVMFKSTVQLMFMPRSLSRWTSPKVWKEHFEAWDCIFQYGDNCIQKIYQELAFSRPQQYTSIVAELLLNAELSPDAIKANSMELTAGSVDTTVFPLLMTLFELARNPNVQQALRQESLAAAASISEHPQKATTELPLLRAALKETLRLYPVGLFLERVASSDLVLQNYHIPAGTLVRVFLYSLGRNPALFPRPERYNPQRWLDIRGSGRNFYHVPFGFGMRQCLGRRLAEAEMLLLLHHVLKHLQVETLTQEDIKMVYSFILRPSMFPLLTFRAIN

[2] = Pharmacokinetic determination in rats; format: in vivo; settings: rat, male SD rats, plasma, oral administration (PO) 5 mg/kg; for MRT inf: read-out: MRT0-∞
Experimental: SD rats were used as test animals to study the pharmacokinetic behavior of the compounds of the present invention in rats (plasma) after oral administration.
3 SD rats per group, male.
Formulation of drug for oral administration: 0.5% CMC-Na (1% Tween 80)
5 g of sodium carboxymethyl cellulose (CMC-Na, viscosity: 800-1200 Cps) was weighed and dissolved in 1000 mL of purified water, and 10 g of Tween 80 was added. These materials were uniformly mixed to form a clear solution.
The example compounds were weighed and dissolved in the solution and the mixture was shaken well and ultrasonicated for 15 min to obtain a colorless clear solution with a concentration of 0.5 mg/mL. Formulation of drug for intravenous administration: 5% DMSO + 10% Solutol HS15 + 85% PBS
After overnight fasting, 3 male SD rats per group were administered orally (PO) at a dose of 5 mg/kg with an administration volume of 10 mL/kg. […]
0.2 mL of blood was collected from the jugular vein of the experimental animals before administration and at 0.25 h, 0.5 h, 1.0 h, 2.0 h, 4.0 h, 6.0 h, 8.0 h, and 24.0 h after administration and placed in an EDTA-2K test tube, and the test tube was centrifuged at 8000 rpm for 6 min at 4°C to separate the plasma, which was stored at -80°C; and the animals were fed 4 h after administration.
3 Experimental results: The final determination results were obtained by using LCMS/MS method.

[3] = target: T2, human CYP11B2 (Homo sapiens, UniProt P19099); assay: G-402 cell enzyme experiment, CYP11B2 (aldosterone product, HTRF); format: cell-based; settings: G-402 cells stably expressing human CYP11B2, 1 µM 11-deoxycorticosterone, 16 h
T2 construct: The main elements of an expression plasmid include ORF of human CYP11B1 or human CYP11B2; expressed in transfected cells
T2 sequence (P19099 25-503): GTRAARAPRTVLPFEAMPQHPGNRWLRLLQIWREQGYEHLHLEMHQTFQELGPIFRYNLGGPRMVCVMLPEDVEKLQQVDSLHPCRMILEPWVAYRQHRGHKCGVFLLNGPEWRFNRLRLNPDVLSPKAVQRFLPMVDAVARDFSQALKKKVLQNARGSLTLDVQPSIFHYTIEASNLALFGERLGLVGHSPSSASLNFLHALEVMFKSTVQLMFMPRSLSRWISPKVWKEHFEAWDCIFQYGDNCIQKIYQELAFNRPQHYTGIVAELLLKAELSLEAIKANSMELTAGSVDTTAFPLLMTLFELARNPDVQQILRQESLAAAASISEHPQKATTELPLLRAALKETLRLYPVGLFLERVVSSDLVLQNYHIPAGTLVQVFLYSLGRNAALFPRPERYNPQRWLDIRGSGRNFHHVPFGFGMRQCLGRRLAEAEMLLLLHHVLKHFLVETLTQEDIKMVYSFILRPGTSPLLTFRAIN
Outline: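 Stably transfected G-402 cells in DMEM/F12 with 2.5% charcoal-treated FBS, incubated 16 h with 1 µM 11-deoxycorticosterone (CYP11B2, aldosterone product) or 1 µM 11-deoxycortisol (CYP11B1, cortisol product). Supernatant product measured by HTRF; EC50 from 4-parameter MMF sigmoidal fit, minimum defined by empty-plasmid cells.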

COc1ccc2cc(-c3cncc(N4CC5(CN(C(=O)c6cnn(C)c6)C5)C4)n3)ccc2n1 [Example 79, (6-(6-(2-Methoxyquinolin-6-yl)pyrazin-2-yl)-2,6-diazaspiro[3.3]heptan-2-yl)(1-methyl-1H-pyrazol-4-yl)methanone]
hsF [1]: 3999x | AUC(0-inf) [2]: 16700 ng·h/mL | AUC(0-t) [2]: 16700 ng·h/mL | Cmax [2]: 3160 ng/mL | Tmax [2]: 4 h | half-life [2]: 2.8 h | MRT inf [2]: 4.5 h | EC50 [3]: 12 nM

Cn1cc(C(=O)N2CC(Oc3cncc(-c4ccc5c(c4)sc(=O)n5C)c3)C2)cn1 [Example 91, 3-methyl-6-(5-((1-(1-methyl-1H-pyrazole-4-carbonyl)azetidin-3-yl)oxy)pyridin-3-yl)benzo[d]thiazol-2(3H)-one]
hsF [1]: 2278x | AUC(0-inf) [2]: 18200 ng·h/mL | AUC(0-t) [2]: 18200 ng·h/mL | Cmax [2]: 2560 ng/mL | Tmax [2]: 1 h | half-life [2]: 2.2 h | MRT inf [2]: 4.2 h | EC50 [3]: 12 nM
